{"source": "patent US20210137953A1", "about": "“Inhibitors of Mcl-1 and Akt Binding, Pharmaceutical Compositions, and Uses in Treating Cancer” (Emory University, priority 2019, published 2021)", "key": {"[1]": {"biological_target": "T1, GST-PH domain-only Akt protein (Homo sapiens, UniProt P31749)", "T1 construct": "PH domain-only proteins were generated; made in house", "T1 sequence (P31749 5-108 limits assumed)": "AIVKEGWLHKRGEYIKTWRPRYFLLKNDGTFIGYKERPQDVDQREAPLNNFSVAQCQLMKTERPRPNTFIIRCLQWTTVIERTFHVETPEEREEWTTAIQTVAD", "experiment": "thermal shift assay, PH domain-only protein", "assay_type": "binding", "settings": "purified GST-PH-mutant (PH domain-only) protein, increasing concentrations", "procedure": "(§1) To test whether PH-687 specifically binds to the PH domain in Akt, recombinant GST-tagged WT Akt, PH deletion Akt mutant (DPH), and PH domain-only proteins were generated and PH-687 compound/Akt protein binding were measured using a thermal shift assay. Thermal shift assay is a technique to study protein/small-molecule interactions that enhance protein thermal stability and increase melting temperatures as described in Jin et al. Glutamate dehydrogenase 1 signals through antioxidant glutathione peroxidase 1 to regulate redox homeostasis and tumor growth. Cancer Cell, 2015, 27:257-70. […] Because PH-687 can bind to the Mcl-1-binding site (i.e., PH domain) on Akt protein, the effect of PH-687 on Mcl-1/Akt interaction was tested."}, "[2]": {"system": "human lung cancer cells", "experiment": "sulforhodamine B cytotoxicity screening", "assay_type": "cell-based", "settings": "sulforhodamine B assay; among the top 500 small molecules from docking", "text": "The small molecules were ranked according to their energy scores. The top 500 small molecules based on predicted binding energies were selected for screening of cytotoxicity in human lung cancer cells by sulforhodamine B assay as described in Park et al. Novel small molecule inhibitors of Bcl-XL to treat lung cancer. Cancer Res 2013;73: 5485-96."}, "[3]": {"system": "GST-DPH (PH deletion Akt mutant)", "experiment": "thermal shift assay, PH deletion Akt mutant", "assay_type": "binding", "settings": "GST-DPH protein, increasing concentrations", "procedure": "as §1"}, "[4]": {"biological_target": "T2, GST-tagged WT Akt (Homo sapiens, UniProt P31749)", "T2 construct": "made in house", "T2 sequence (P31749 whole entry)": "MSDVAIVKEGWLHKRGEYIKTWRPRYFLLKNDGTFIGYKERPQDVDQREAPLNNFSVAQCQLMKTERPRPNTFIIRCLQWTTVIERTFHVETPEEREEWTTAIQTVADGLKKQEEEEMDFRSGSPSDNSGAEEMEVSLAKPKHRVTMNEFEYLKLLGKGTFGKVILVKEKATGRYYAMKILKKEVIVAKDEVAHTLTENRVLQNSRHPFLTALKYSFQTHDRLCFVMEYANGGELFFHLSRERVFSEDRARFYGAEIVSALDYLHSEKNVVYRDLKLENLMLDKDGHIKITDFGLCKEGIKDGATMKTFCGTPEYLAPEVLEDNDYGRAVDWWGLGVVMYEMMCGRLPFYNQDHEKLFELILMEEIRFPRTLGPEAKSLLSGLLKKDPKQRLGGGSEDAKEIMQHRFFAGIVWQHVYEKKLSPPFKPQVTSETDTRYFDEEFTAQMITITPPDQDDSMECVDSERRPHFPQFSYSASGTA", "experiment": "thermal shift assay, GST-WT Akt", "assay_type": "binding", "settings": "purified GST-WT Akt, increasing concentrations", "procedure": "as §1"}, "[5]": {"system": "various human lung cancer cell lines (H1299, H157, H460)", "experiment": "colony formation / growth in various human lung cancer cell lines", "assay_type": "cell-based"}, "[6]": {"experiment": "toxicity in xenograft-bearing mice (body weight, blood chemistry, blood counts)", "assay_type": "in vivo", "settings": "30-90 mg/kg/day", "procedure": "(§2) To test the antitumor potency of PH-687 in vivo, nude mice with NSCLC (i.e., H1299) xenografts were treated with increasing doses (0, 30, 60, and 90 mg/kg/day) of PH-687 for 4 weeks.\n(§3) Six-week-old male nude mice were purchased from Harlan and housed under pathogen-free conditions. H1299 cells were subcutaneously implanted into mouse flanks. Tumor bearing mice were randomly grouped and tumors were allowed to grow to an average volume of 100 mm3 before treatment. Mice were treated with PH-687 through intraperitoneal injection (i.p) at the indicated dose. During treatment, tumor volumes were measured by caliper once every 4 days."}, "[7]": {"system": "H1299 cells expressing Akt siRNA", "experiment": "colony formation assay, H1299 cells expressing Akt siRNA", "assay_type": "cell-based, human", "settings": "knockdown of Akt by Akt siRNA, vs H1299 parental; 0, 0.1, 0.5, 1 mmol/L", "procedure": "(§4) To further test whether PH-687 specifically functions through targeting Mcl-1/AKT signaling in lung cancer cells, H1299 parental cells, H1299 Mcl-1^−/^− cells and H1299 cells expressing Akt siRNA were treated with increasing concentrations of PH-687 (0, 0.1, 0.5, 1 mmol/L), followed by colony formation assay."}, "[8]": {"system": "H1299 parental cells", "experiment": "colony formation assay, H1299 parental cells", "assay_type": "cell-based, human", "settings": "H1299 cells, 0, 0.1, 0.5, 1 mmol/L", "procedure": "as §4"}, "[9]": {"biological_target": "T3, Mcl-1/Akt complexes (Homo sapiens, UniProt P31749)", "T3 construct": "treatment of H1299 cells with increasing concentrations of PH-687; endogenous in cells; host or cells: H1299", "T3 sequence (P31749 whole entry, one chain of several)": "as the sequence (P31749 whole entry) above", "experiment": "Co-IP of Mcl-1/Akt interaction in H1299 cells", "assay_type": "cell-based", "settings": "increasing concentrations", "procedure": "To evaluate the mechanism by which Mcl-1 regulates Akt, coimmunoprecipitation (co-IP) experiments using Mcl-1 or Akt antibody were performed in H1299 parental versus H1299 Mcl-1^−/^− cells. […] Because Akt antibody could pull-down Mcl-1 protein only in H1299 parental, but not in H1299 Mcl-1^−/^− cells, this indicates a potential direct interaction between Mcl-1 and Akt in human lung cancer cells. To further verify this interaction, similar co-IP experiments were carried out in a cell-free system using purified recombinant Mcl-1 and Akt proteins. Consistently, Mcl-1 also directly interacted with Akt in the cell-free system. To detect the intracellular localization(s) of Akt/Mcl-1 interaction, a Duolink™ proximity ligation assay (PLA) system was employed to detect Akt/Mcl-1 interaction in H1299 cells and H460 cells according to the manufacturer's instructions. Two primary antibodies raised in different species (i.e., Mcl-1 antibody from rabbit and Akt antibody from mouse) are used to detect two unique protein targets. […] PLA signals were detected by fluorescence microscopy as discrete spots. […]\nTo test whether PH-687 specifically binds to the PH domain in Akt, recombinant GST-tagged WT Akt, PH deletion Akt mutant (DPH), and PH domain-only proteins were generated and PH-687 compound/Akt protein binding were measured using a thermal shift assay. […]"}, "[10]": {"system": "Akt", "experiment": "Akt activity in human lung cancer cell lines", "assay_type": "cell-based"}, "[11]": {"system": "Akt PH/KD interaction", "experiment": "mammalian two-hybrid system (SEAP), PH/KD interaction in H1299 cells", "assay_type": "cell-based, human", "settings": "H1299 cells, 0, 0.5, 1, 2 mmol/L, 24 hours", "text": "Because Mcl-1 can directly interact with Akt at the PH domain, experiments were designed to test whether Mcl-1 affects the intramolecular PH domain/KD interaction. GST-tagged KD, GFP-tagged PH domain, and Flag-tagged WT Mcl-1 or DPEST Mcl-1 mutant were used for co-transfection and co-IP experiments. […] To further confirm these findings, a mammalian two-hybrid system was employed to measure the PH/KD interaction. Co-transfection of Gal4BD-Akt KD and VP16AD-Akt PH along with pG5SEAP in cells drives the expression of secreted alkaline phosphatase (SEAP) when KD/PH interaction occurs. To test the effect of Mcl-1 on KD/PH interaction, the two-hybrid H1299 Mcl-1^−/^− cells were co-transfected with WT Mcl-1 or DPEST mutant Mcl-1, followed by analysis of SEAP activity. […] Because the PEST domain is required for Mcl-1/Akt binding, it is proposed that Mcl-1 disruption of intramolecular PH domain/kinase domain interactions may occur through Mcl-1/Akt binding.\n(§5) To test whether PH-687-mediated Mcl-1/Akt dissociation enhances interaction between the PH and KD domains, a mammalian two-hybrid system was employed to measure the PH/KD interaction in H1299 cells using Gal4BD-Akt KD, VP16AD-Akt PH, and pG5SEAP in the absence or presence of PH-687."}, "[12]": {"system": "H1299 Mcl-1−/− cells", "experiment": "colony formation assay, H1299 Mcl-1−/− cells", "assay_type": "cell-based, human", "settings": "knockout of Mcl-1 by CRISPR/cas9, vs H1299 parental; 0, 0.1, 0.5, 1 mmol/L", "procedure": "as §4"}, "[13]": {"biological_target": "T4, Akt/PDK1 (Homo sapiens, UniProt P31749)", "T4 construct": "endogenous in cells; host or cells: H1299", "T4 sequence (P31749 whole entry, the tested form may be a part)": "as the sequence (P31749 whole entry) above", "experiment": "interaction of Akt with PDK1 in H1299 cells", "assay_type": "cell-based", "procedure": "(§6) PIP3 directly binds to the PH domain and induces a conformational change in Akt, which enables PDK1 or mTORC2 to access and phosphorylate Akt at T308 or S473. To test whether Mcl-1, similar to PIP3, may also affect the interactions between Akt and PDK1 or mTORC2, co-IP experiments using Akt antibody were performed in H1299 parental cells or H1299 Mcl-1^−/^− cells expressing WT Mcl-1, DPEST Mcl-1 mutant, or empty vector, followed by Western blot using PDK1 or mTORC2 antibody, respectively. Results reveal that knockout of Mcl-1 disrupted Akt/PDK1 and Akt/mTORC2 interactions, and expression of WT Mcl-1, but not PEST deletion mutant, restored Akt/PDK1 and Akt/mTORC2 interactions.\nas §5"}, "[14]": {"biological_target": "T5, Akt/mTORC2 (Homo sapiens, UniProt P31749)", "T5 construct": "endogenous in cells; host or cells: H1299", "T5 sequence (P31749 whole entry)": "as above", "experiment": "interaction of Akt with mTORC2 in H1299 cells", "assay_type": "cell-based", "procedure": "as §6, §5"}, "[15]": {"system": "NSCLC (H1299) xenografts", "experiment": "H1299 lung cancer xenografts in nude mice", "assay_type": "in vivo", "procedure": "Nu/Nu nude mice with H1299 lung cancer xenografts were treated with increasing doses of PH-687 for 4 weeks. Tumor volume was measured once every 4 days. After 28 days, mice were sacrificed and the tumors were removed, photographed, and analyzed.\nas §2, §3\nParaffin-embedded human lung tissue samples from 208 patients with NSCLC were obtained. Tissue microarray was constructed with replicate cores of tumor and adjacent normal lung. After deparaffinization, rehydration, inactivation of endogenous peroxidase, and antigen retrieval, IHC staining was performed. The following primary antibody dilutions were used: anti-Mcl-1 (1:300), anti-pAKT S473 (1:100), anti-pAKT T308 (1:100), anti-Ki67 (1:500), and anti-active caspase-3 (1:100). Ki67-positive cells and active caspase-3-positive cells in tumor tissues were scored. Percentage of positive cells was determined from three separate fields in each of three independent tumor samples. The semiquantitative evaluation of IHC staining of Mcl-1 and pAkt was carried out using an immunoscore based on both the percentage of stained cells and staining intensity."}, "[16]": {"system": "Akt phosphorylation", "experiment": "growth factor-induced Akt phosphorylation in H1299 cells", "assay_type": "cell-based, human", "settings": "2 mmol/L, 1 hour, EGF 100 ng/mL, IGF 10 ng/mL or insulin 1 mg/mL", "procedure": "To test whether Mcl-1 or PH-687 also affects Akt activation by growth factors such as EGF, IGF, or insulin, first, H1299 parental and H1299 Mcl-1^−/^− cells were treated with EGF (100 ng/mL), IGF (10 ng/mL), or insulin (1 mg/mL) for 1 hour, followed by analysis of Akt phosphorylation. […] Knockout of Mcl-1 blocked EGF, IGF, and insulin-induced Akt phosphorylation at S473 and T308. Second, H1299 cells were treated with EGF (100 ng/mL), IGF (10 ng/mL), or insulin (1 mg/mL) in the absence or presence of PH-687 (2 mmol/L) for 1 hour, followed by analysis of Akt phosphorylation. Results reveal that PH-687 inhibited EGF, IGF, and insulin-induced Akt phosphorylation at S473 and T308."}, "[17]": {"settings": "harvested tumor tissues after treatment"}}, "note": "“Also recorded” adds a separate entry of the source."}
{"smiles": "N=c1ccn2c(n1)OC1C(OP(=O)(O)O)C(CO)OC12", "note": "(stereo not shown) [PH-687, 2-(hydroxymethyl)-6-imino-2,3,3a,9a-tetrahydro-6H-furo[2′,3′:4,5]oxazolo[3,2-a]pyrimidin-3-yl dihydrogen phosphate]", "values": [{"measurement": "Tm (melting temperature)", "setting": "[1]", "result": "Dose-dependent increases in Tm"}, {"measurement": "activity against human lung cancer cells (cytotoxicity)", "setting": "[2]", "result": "most potent activity"}, {"measurement": "Tm (melting temperature)", "setting": "[3]", "result": "no significant increase in Tm"}, {"measurement": "Tm (melting temperature)", "setting": "[4]", "result": "Dose-dependent increases in Tm"}, {"measurement": "cell growth", "setting": "[5]", "result": "growth inhibition"}, {"measurement": "increase in alanine aminotransferase", "setting": "[6]", "result": "no significant increase"}, {"measurement": "increase in aspartate aminotransferase", "setting": "[6]", "result": "no significant increase"}, {"measurement": "increase in blood urea nitrogen", "setting": "[6]", "result": "no significant increase"}, {"measurement": "reduction in PLT", "setting": "[6]", "result": "no significant"}, {"measurement": "reduction in RBC", "setting": "[6]", "result": "no significant"}, {"measurement": "reduction in WBC", "setting": "[6]", "result": "no significant"}, {"measurement": "reduction in hemoglobin", "setting": "[6]", "result": "no significant"}, {"measurement": "weight loss", "setting": "[6]", "result": "no significant weight loss"}, {"measurement": "inhibitory effect on cell growth (colony formation)", "setting": "[7]", "result": "reduced the inhibitory effect"}, {"measurement": "cell growth (colony formation)", "setting": "[8]", "result": "growth inhibition in a dose-dependent manner"}, {"measurement": "dissociation of Mcl-1/Akt complexes", "setting": "[9]", "result": "dose-dependent dissociation of Mcl-1/Akt complexes"}, {"measurement": "Akt activity", "setting": "[10]", "result": "significantly reduced Akt activity"}, {"measurement": "PH/KD interaction", "setting": "[11]", "result": "increased PH/KD interaction in a dose-dependent manner"}, {"measurement": "inhibitory effect on cell growth (colony formation)", "setting": "[12]", "result": "reduced the inhibitory effect"}, {"measurement": "interaction of Akt with PDK1", "setting": "[13]", "result": "dose dependent decreased interaction"}, {"measurement": "interaction of Akt with mTORC2", "setting": "[14]", "result": "dose dependent decreased interaction"}, {"measurement": "Ki67 level in tumor tissues (IHC)", "setting": "[15]; [17]", "result": "decreased levels"}, {"measurement": "apoptosis (active caspase-3) in tumor tissues (IHC)", "setting": "[15]; [17]", "result": "increased apoptosis"}, {"measurement": "pAkt (S473) level in tumor tissues (IHC)", "setting": "[15]; [17]", "result": "decreased levels"}, {"measurement": "pAkt (T308) level in tumor tissues (IHC)", "setting": "[15]; [17]", "result": "decreased levels"}, {"measurement": "tumor growth (tumor volume)", "setting": "[15]; nude mice, 0, 30, 60, 90 mg/kg/day i.p., 4 weeks", "result": "suppressed tumor growth in a dose-dependent manner; also recorded: suppresses tumor growth"}, {"measurement": "EGF, IGF, and insulin-induced Akt phosphorylation at S473", "setting": "[16]", "result": "inhibited"}, {"measurement": "EGF, IGF, and insulin-induced Akt phosphorylation at T308", "setting": "[16]", "result": "inhibited"}]}
